The values below come from ChEMBL document CHEMBL1126511, “Protein damage caused by a synthetic enediyne core” (Bioorg Med Chem Lett, 1993).

SMILES strings stand for the structures.

The subject of this assay is HCT-116. Description: In vitro cytotoxicity against human colon carcinoma cell line HCT116. The class given is functional, cell-based.

For orientation: IC50 means the concentration needed to halve the response being measured. Lower therefore signals inhibition by little substance. The molecule `O=C1C2=CCC[C@@]1(O)C#C/C=C\C#C[C@@H]2O` returned an IC50 of 100 nM. In other words, the sub-micromolar range.
